# Results from the supplement of paper PMC10307832.
# Legend:
# Test in all cases: relative viability (nuclei count vs DMSO), 5 days (fraction); higher = more cells survive
# [1] = compound: N#CC[C@H](C1CCCC1)n1cc(-c2ncnc3[nH]ccc23)cn1 [Ruxolitinib] + CC(=O)c1c(C)c2cnc(Nc3ccc(N4CCNCC4)cn3)nc2n(C2CCCC2)c1=O [Palbociclib] (partner 0.5 µM)
# How it was run: (§1)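 For relative viability, nuclei counts in treated wells were divided by those in vehicle wells. Lung cancer cell lines had been pin-tool dosed in 1536-well plates the day after seeding and cultured for 5 days, then fixed and stained in one step (final 0.05% Triton X-100, 1% formaldehyde, 1 ug/ml Hoechst) and imaged at 4×. Doses were one drug alone or a fixed anchor-drug dose plus five library-drug doses (not always all listed) in √10 steps, and values are duplicate-plate medians.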
# VE-821 + Pictilisib = compound: CS(=O)(=O)c1ccc(-c2cnc(N)c(C(=O)Nc3ccccc3)n2)cc1 [VE-821] + CS(=O)(=O)N1CCN(Cc2cc3nc(-c4cccc5[nH]ncc45)nc(N4CCOCC4)c3s2)CC1 [Pictilisib] (partner 1 µM)
# How it was run: as §1
# Ruxolitinib + Trametinib = compound: N#CC[C@H](C1CCCC1)n1cc(-c2ncnc3[nH]ccc23)cn1 [Ruxolitinib] + CC(=O)Nc1cccc(-n2c(=O)n(C3CC3)c(=O)c3c(Nc4ccc(I)cc4F)n(C)c(=O)c(C)c32)c1 [Trametinib] (partner 0.02 µM)
# How it was run: as §1
# Ruxolitinib + AZD7762 = compound: N#CC[C@H](C1CCCC1)n1cc(-c2ncnc3[nH]ccc23)cn1 [Ruxolitinib] + NC(=O)Nc1cc(-c2cccc(F)c2)sc1C(=O)N[C@H]1CCCNC1 [AZD7762] (partner 0.2 µM)
# How it was run: as §1
Cell Line,relative viability ([1]; first compound 0.08 µM),relative viability ([1]; first compound 0.253 µM),relative viability ([1]; first compound 0.8 µM),relative viability ([1]; first compound 2.53 µM),relative viability ([1]; first compound 8 µM),relative viability (VE-821 + Pictilisib; first compound 0.08 µM),relative viability (VE-821 + Pictilisib; first compound 0.253 µM),relative viability (VE-821 + Pictilisib; first compound 0.8 µM),relative viability (VE-821 + Pictilisib; first compound 2.53 µM),relative viability (VE-821 + Pictilisib; first compound 8 µM),relative viability (Ruxolitinib + Trametinib; first compound 0.08 µM),relative viability (Ruxolitinib + Trametinib; first compound 0.253 µM),relative viability (Ruxolitinib + Trametinib; first compound 0.8 µM),relative viability (Ruxolitinib + Trametinib; first compound 2.53 µM),relative viability (Ruxolitinib + Trametinib; first compound 8 µM),relative viability (Ruxolitinib + AZD7762; first compound 0.08 µM),relative viability (Ruxolitinib + AZD7762; first compound 0.253 µM),relative viability (Ruxolitinib + AZD7762; first compound 0.8 µM),relative viability (Ruxolitinib + AZD7762; first compound 2.53 µM),relative viability (Ruxolitinib + AZD7762; first compound 8 µM)
201T,0.366,0.362,0.407,0.433,0.397,0.723,0.626,0.65,0.698,0.559,0.753,0.803,0.927,0.907,0.922,0.583,0.622,0.595,0.649,0.763
A549,,,,,,0.616,0.481,0.531,0.468,0.229,,,,,,,,,,
A-427,0.557,0.516,0.556,0.499,0.464,0.763,0.538,0.54,0.684,0.389,0.808,0.757,0.96,0.636,0.728,0.821,0.763,0.729,0.453,0.508
ABC-1,,0.831,0.652,0.808,0.754,0.902,0.684,0.721,0.751,0.466,,,,,,,1.07,0.834,0.743,0.928
BEN,0.488,0.456,0.504,0.503,0.51,0.707,0.55,0.527,0.591,0.542,1.01,1.01,1.13,0.99,1.35,0.777,0.655,0.793,0.813,0.827
CAL-12T,0.316,0.334,0.461,0.363,0.223,0.479,0.394,0.448,0.427,0.314,0.341,0.375,0.376,0.241,0.31,0.623,0.688,0.694,0.732,0.608
COR-L23,0.343,0.273,0.371,0.248,0.222,1.17,0.654,0.961,0.981,0.682,0.766,0.616,0.878,0.276,0.508,,,,,
COR-L 105,,0.386,0.387,0.392,0.365,0.46,0.392,0.402,0.405,0.38,,0.472,0.424,0.381,0.432,,,,,
Calu-6,,,,,,1.1,0.973,0.918,0.778,0.523,,,,,,,,,,
ChaGo-K-1,0.909,0.924,0.906,0.8,0.789,0.705,0.712,0.927,0.797,0.339,0.885,0.887,0.828,0.803,0.765,0.909,0.853,0.869,0.834,0.703
EBC-1,,,,,,0.295,0.353,0.382,0.433,0.312,,,,,,,,,,
EKVX,,0.358,0.393,0.34,0.333,0.509,0.412,0.451,0.411,0.356,,0.318,0.348,0.265,0.361,,0.77,0.848,0.799,0.698
EMC-BAC-2,0.518,0.507,0.58,0.47,0.418,0.548,0.528,0.583,0.593,0.552,0.886,0.806,1.08,0.768,0.948,1.07,1.03,1.3,1.08,0.695
EPLC-272H,0.285,0.331,0.38,0.365,0.412,0.427,0.32,0.347,0.399,0.309,0.322,0.334,0.41,0.286,0.337,0.321,0.267,0.244,0.285,0.316
H3255,0.307,0.297,0.315,0.266,0.263,0.583,0.553,0.549,0.454,0.568,,0.548,0.725,0.465,0.648,0.783,0.868,1.08,0.774,0.743
HARA,0.301,0.273,0.286,0.228,0.253,0.509,0.294,0.408,0.401,0.477,0.639,0.622,1.07,0.269,0.775,0.344,0.365,0.377,0.0804,0.304
HCC-15,0.708,0.718,0.759,0.663,0.635,0.947,0.757,0.781,0.92,0.749,0.348,0.382,0.395,0.322,0.355,1.09,0.878,1.23,1.12,1.17
HCC-44,0.995,1.03,0.98,0.942,0.947,1.86,0.468,0.701,0.708,0.79,1.04,0.971,0.997,0.753,1.02,0.947,1.05,1,0.994,1.05
HCC-78,0.422,0.481,0.431,0.507,0.492,0.207,0.237,0.229,0.22,0.206,0.679,0.7,0.609,0.45,0.517,0.695,0.484,0.481,0.631,0.628
HCC-366,0.417,0.441,0.389,0.365,0.19,0.152,0.252,0.0721,0.127,0.101,0.33,0.319,0.432,0.239,0.231,0.286,0.253,0.262,0.166,0.246
HCC-827,,0.275,0.408,0.366,0.411,1.1,1.03,1.19,1.24,1.19,,0.545,0.563,0.469,0.784,,0.178,0.238,0.236,0.308

Cell Line,relative viability ([1]; first compound 0.08 µM),relative viability ([1]; first compound 0.253 µM),relative viability ([1]; first compound 0.8 µM),relative viability ([1]; first compound 2.53 µM),relative viability ([1]; first compound 8 µM),relative viability (VE-821 + Pictilisib; first compound 0.08 µM),relative viability (VE-821 + Pictilisib; first compound 0.253 µM),relative viability (VE-821 + Pictilisib; first compound 0.8 µM),relative viability (VE-821 + Pictilisib; first compound 2.53 µM),relative viability (VE-821 + Pictilisib; first compound 8 µM),relative viability (Ruxolitinib + Trametinib; first compound 0.08 µM),relative viability (Ruxolitinib + Trametinib; first compound 0.253 µM),relative viability (Ruxolitinib + Trametinib; first compound 0.8 µM),relative viability (Ruxolitinib + Trametinib; first compound 2.53 µM),relative viability (Ruxolitinib + Trametinib; first compound 8 µM),relative viability (Ruxolitinib + AZD7762; first compound 0.08 µM),relative viability (Ruxolitinib + AZD7762; first compound 0.253 µM),relative viability (Ruxolitinib + AZD7762; first compound 0.8 µM),relative viability (Ruxolitinib + AZD7762; first compound 2.53 µM),relative viability (Ruxolitinib + AZD7762; first compound 8 µM)
HOP-62,0.454,0.451,0.45,0.435,0.411,0.689,0.785,0.807,0.944,0.516,0.414,0.398,0.476,0.188,0.37,0.437,0.796,0.564,0.627,0.704
IA-LM,,,,,,0.412,0.341,0.443,0.749,0.551,,,,,,,,,,
LC-2-ad,0.544,0.511,0.533,0.473,0.409,0.704,0.392,0.545,0.514,0.373,0.879,0.896,0.878,0.663,0.577,0.875,0.865,0.821,0.792,0.693
LCLC-97TM1,0.235,0.185,0.213,0.192,0.213,0.178,0.203,0.229,0.224,0.137,0.176,0.157,0.199,0.113,0.217,0.401,0.267,0.317,0.287,0.53
NCI-H520,0.243,0.218,0.251,0.204,0.258,0.321,0.357,,0.325,0.276,0.87,0.663,0.823,0.609,0.574,,,,,
NCI-H522,1.12,1.09,1.16,0.869,0.933,,,,,,0.729,0.767,0.964,0.678,0.708,0.948,0.716,1.01,0.794,0.803
NCI-H596,,,,,,0.416,0.4,0.431,0.431,0.385,0.741,0.702,0.928,0.763,0.789,1.35,1.04,1.21,1.09,1.27
NCI-H661,0.425,0.436,0.427,0.417,0.381,0.379,0.393,0.406,0.39,0.336,0.661,0.619,0.685,0.432,0.52,,,,,
NCI-H1299,,,,,,0.769,0.606,0.689,0.771,0.357,,,,,,,,,,
NCI-H1563,,,,,,0.581,0.613,0.648,0.663,0.731,,,,,,,,,,
NCI-H1648,0.294,0.302,0.344,0.345,0.371,,,,,,0.548,0.517,0.62,0.416,0.74,0.739,0.817,0.658,0.914,1.15
NCI-H1650,0.333,0.345,0.395,0.287,0.356,0.677,0.506,0.57,0.638,0.499,0.331,0.597,0.628,0.27,0.541,,,,,
NCI-H1703,,,,,,0.241,0.233,0.25,0.227,0.192,,,,,,0.127,0.126,0.143,,0.115
NCI-H2009,0.289,0.216,0.241,0.154,0.139,0.873,0.754,0.881,0.894,0.664,0.304,0.249,0.329,0.168,0.196,,,,,
NCI-H2023,0.42,0.4,0.361,0.387,0.397,0.278,0.223,0.191,0.194,0.135,0.57,0.524,0.654,0.4,0.565,,,,,
NCI-H2228,0.622,0.812,0.843,0.713,0.219,0.401,0.414,0.585,0.566,0.358,0.229,0.861,0.62,0.24,0.144,,,,,
NCI-H2342,0.53,0.496,0.49,0.543,0.541,,,,,,0.762,0.872,0.808,0.807,0.816,0.429,0.447,0.488,0.422,0.649
SK-LU-1,0.426,0.416,0.421,0.374,0.336,0.602,0.557,0.621,0.432,0.316,0.5,0.578,0.548,0.3,0.408,,,,,
SK-MES-1,0.331,0.336,0.332,0.305,0.321,0.4,0.389,0.423,0.337,0.372,0.561,0.596,0.587,0.315,0.516,,,,,
SW 900,0.477,0.589,0.625,0.624,0.532,,,,,,0.597,0.742,1.09,0.614,0.902,0.656,0.525,0.722,0.891,0.833
SW 1573,0.436,0.382,0.411,0.546,0.299,0.625,0.531,0.541,0.569,0.47,0.533,0.545,0.616,0.486,0.574,,,,,
